US20110306597A1, “Nicotinamide Derivatives” (priority 2008, published 2011)

Biological target: human recombinant H-PGDS (Homo sapiens, UniProt O60760)
Assay: Fluorescence Intensity h-PGDS TBA Enzyme Assay
Type: biochemical
Conditions: 1:175,000 human recombinant H-PGDS, highest inhibitor concentration typically 1 μM
Method in brief: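 Recombinant human H-PGDS preincubated 10 min at room temperature with inhibitor in 100 mM Tris pH 8.0, 100 μM MgCl2, 2.5 mM glutathione, 0.5% DMSO; 5.0 μM PGH2 added, stopped after 42 s with FeCl2/citric acid. Remaining PGH2 measured as MDA–TBA fluorescence (ex 530/em 565 nm); IC50 by 4-parameter fit, 11 concentrations.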

Sequence of human recombinant H-PGDS (O60760 whole entry): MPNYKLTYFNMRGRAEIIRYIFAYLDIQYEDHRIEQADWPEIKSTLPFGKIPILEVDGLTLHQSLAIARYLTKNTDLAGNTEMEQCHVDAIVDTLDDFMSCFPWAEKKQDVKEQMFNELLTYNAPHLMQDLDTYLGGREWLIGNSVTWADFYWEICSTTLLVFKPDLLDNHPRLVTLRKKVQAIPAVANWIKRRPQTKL

| Compound | IC50 |
| --- | --- |
| O=C(NCc1ccc(C(F)(F)F)cc1)c1ccc(-c2ccc(F)cc2)nc1 [Example 267, 6-(4-Fluorophenyl)-N-[4-(trifluoromethyl)benzyl] nicotinamide] | ≥ 1000 nM |
| COC(=O)c1ccc(CNC(=O)c2ccc(-c3ccc(F)cc3)nc2)cc1 [Example 268, Methyl 4-[({[6-(4-fluorophenyl)pyridin-3-yl]carbonyl}amino)methyl benzoate] | 286 nM |
| NC(CC(=O)NC(=O)c1ccc(-c2ccc(F)cc2)nc1)C1CC1 (centres unmarked) [Example 269, N-(3-Amino-3-cyclopropylpropanoyl)-6-(4-fluorophenyl)nicotinamide] | 672 nM |
| O=C(NCCC1CCCCO1)c1ccc(-c2ccc(F)cc2)nc1 (centres unmarked) [Example 270, 6-(4-Fluorophenyl)-N-[2-(tetrahydro-2H-pyran-2-yl)ethyl]nicotinamide] | 216 nM |
| COc1cccc(-c2ccc(C(=O)NCCN3CCCCC3=O)cn2)c1 [Example 271, 6-(3-Methoxyphenyl)-N-[2-(2-oxopiperidin-1-yl)ethyl]nicotinamide] | 219 nM |
| CCOC(=O)CC(NC(=O)c1ccc(-c2cccc(OC)c2)nc1)c1ccccc1 (centres unmarked) [Example 272, Ethyl 3-({[6-(3-methoxyphenyl)pyridin-3-yl]carbonyl}amino)-3-phenylpropanoate] | 474 nM |
| COc1cccc(-c2ccc(C(=O)NCC3CCN(C(C)=O)CC3)cn2)c1 [Example 273, N-[(1-Acetylpiperidin-4-yl)methyl]-6-(3-methoxyphenyl)nicotinamide] | 559 nM |
| COc1cccc(-c2ccc(C(=O)NC3CCN(Cc4ccc(C)cc4)C3=O)cn2)c1 (centres unmarked) [Example 274, 6-(3-Methoxyphenyl)-N-[1-(4-methylbenzyl)-2-oxopyrrolidin-3-yl]nicotinamide] | 106 nM |
| COc1cccc(-c2ccc(C(=O)NCc3ccc(OC)c(OC)c3)cn2)c1 [Example 275, N-(3,4-Dimethoxybenzyl)-6-(3-methoxyphenyl)nicotinamide] | 179 nM |
| CCOC(=O)CC(NC(=O)c1ccc(-c2cccc(OC)c2)nc1)c1ccccc1Cl (centres unmarked) [Example 276, Ethyl 3-(2-chlorophenyl)-3-({[6-(3-methoxyphenyl)pyridin-3-yl]carbonyl}amino) propanoate] | 252 nM |
| COc1cccc(-c2ccc(C(=O)NC(=O)CC(N)c3ccc(OC)c(OC)c3)cn2)c1 (centres unmarked) [Example 277, N-[3-Amino-3-(3,4-dimethoxyphenyl)propanoyl]-6-(3-methoxyphenyl) nicotinamide] | 274 nM |
| COc1cccc(-c2ccc(C(=O)NCCc3nc(C)no3)cn2)c1 [Example 278, 6-(3-Methoxyphenyl)-N-[2-(3-methyl-1,2,4-oxadiazol-5-yl)ethyl]nicotinamide] | 324 nM |
| COc1cccc(-c2ccc(C(=O)NCC(C)(C)N3CCOCC3)cn2)c1 [Example 279, 6-(3-Methoxyphenyl)-N-(2-methyl-2-morpholin-4-ylpropyl)nicotinamide] | 211 nM |
| COc1cccc(-c2ccc(C(=O)NCc3ccc(SC)cc3)cn2)c1 [Example 280, 6-(3-Methoxyphenyl)-N-[4-(methylthio)benzyl]nicotinamide] | 62.4 nM |
| COc1cccc(-c2ccc(C(=O)NCc3ccc(Cl)cc3)cn2)c1 [Example 281, N-(4-Chlorobenzyl)-6-(3-methoxyphenyl)nicotinamide] | 561 nM |
| COc1cccc(-c2ccc(C(=O)NCC(C)(C)OC)cn2)c1 [Example 282, N-(2-Methoxy-2-methylpropyl)-6-(3-methoxyphenyl)nicotinamide] | 959 nM |
| COC(=O)CNC(=O)c1ccc(-c2cccc(OC)c2)nc1 [Example 283, Methyl N-{[6-(3-methoxyphenyl)pyridin-3-yl]carbonyl}glycinate] | 826 nM |
| COc1cccc(-c2ccc(C(=O)NCC3CCCCO3)cn2)c1 (centres unmarked) [Example 284, 6-(3-Methoxyphenyl)-N-(tetrahydro-2H-pyran-2-ylmethyl)nicotinamide] | 519 nM |
| COc1cccc(-c2ccc(C(=O)NCCN(C)C)cn2)c1 [Example 285, N-[2-(Dimethylamino)ethyl]-6-(3-methoxyphenyl) nicotinamide] | ≥ 1000 nM |
| COc1cccc(-c2ccc(C(=O)NCc3ccc(C(F)(F)F)cc3)cn2)c1 [Example 286, 6-(3-Methoxyphenyl)-N-[4-(trifluoromethyl)benzyl] nicotinamide] | 536 nM |
| COc1cccc(-c2ccc(C(=O)NC(=O)[C@@H](N)C(C)C)cn2)c1 [Example 287, 6-(3-Methoxyphenyl)-N-L-valylnicotinamide] | 816 nM |
| COc1cccc(-c2ccc(C(=O)NCc3ccco3)cn2)c1 [Example 288, N-(2-Furylmethyl)-6-(3-methoxyphenyl)nicotinamide] | 333 nM |
| CCCCNC(=O)c1ccc(-c2cccc(OC)c2)nc1 [Example 289, N-Butyl-6-(3-methoxyphenyl)nicotinamide] | 466 nM |
| COc1cccc(-c2ccc(C(=O)NCCCN3CCCC3=O)cn2)c1 [Example 290, 6-(3-Methoxyphenyl)-N-[3-(2-oxopyrrolidin-1-yl)propyl]nicotinamide] | 627 nM |

| Compound | IC50 |
| --- | --- |
| COc1cccc(-c2ccc(C(=O)NCc3ccc(-n4cncn4)cc3)cn2)c1 [Example 291, 6-(3-Methoxyphenyl)-N-[4-(1H-1,2,4-triazol-1-yl)benzyl]nicotinamide] | 203 nM |
| COc1cccc(-c2ccc(C(=O)NCc3cccc(S(C)(=O)=O)c3)cn2)c1 [Example 292, 6-(3-Methoxyphenyl)-N-[3-(methylsulfonyl)benzyl] nicotinamide] | 215 nM |
| COc1cccc(-c2ccc(C(=O)NC3CCOC3=O)cn2)c1 (centres unmarked) [Example 293, 6-(3-Methoxyphenyl)-N-(2-oxotetrahydrofuran-3-yl)nicotinamide] | 508 nM |
| CCOC(=O)CC(NC(=O)c1ccc(-c2cccc(OC)c2)nc1)c1ccc(OC)cc1 (centres unmarked) [Example 294, Ethyl 3-(4-methoxyphenyl)-3-({[6-(3-methoxyphenyl)pryidin-3-yl]carbonyl}amino) propanoate] | 191 nM |
| COc1cccc(-c2ccc(C(=O)NCCN3CCN(Cc4ccccc4)CC3)cn2)c1 [Example 295, N-[2-(4-Benzylpiperazin-1-yl)ethyl]-6-(3-methoxyphenyl)nicotinamide] | 377 nM |
| COc1cccc(-c2ccc(C(=O)NC3CCN(Cc4ccc(Cl)c(Cl)c4)C3=O)cn2)c1 (centres unmarked) [Example 296, N-[1-(3,4-Dichlorobenzyl)-2-oxopyrrolidin-3-yl]-6-(3-methoxyphenyl)nicotinamide] | 209 nM |
| COc1cccc(-c2ccc(C(=O)NC(C)C)cn2)c1 [Example 297, N-Isopropyl-6-(3-methoxyphenyl)nicotinamide] | 351 nM |
| COc1cccc(-c2ccc(C(=O)NCCN3CCOC3=O)cn2)c1 [Example 298, 6-(3-Methoxyphenyl)-N-[2-(2-oxo-1,3-oxazolidin-3-yl)ethyl]nicotinamide] | 528 nM |
| COc1cccc(-c2ccc(C(=O)NC(C)c3ccncn3)cn2)c1 (centres unmarked) [Example 299, 6-(3-Methoxyphenyl)-N-(1-pyrimidin-4-ylethyl)nicotinamide] | 578 nM |
| COc1cccc(-c2ccc(C(=O)NCCN3CCCC3=O)cn2)c1 [Example 300, 6-(3-methoxyphenyl)-N-[2-(2-oxopyrrolidin-1-yl)ethyl]nicotinamide] | 762 nM |
| CCOC(=O)CCCNC(=O)c1ccc(-c2cccc(OC)c2)nc1 [Example 301, Ethyl 4-({[6-(3-methoxyphenyl)pyridin-3-yl]carbonyl}amino)butanoate] | 49.9 nM |
| COc1cccc(-c2ccc(C(=O)NCCc3cccs3)cn2)c1 [Example 302, 6-(3-Methoxyphenyl)-N-[2-(2-thienyl)ethyl]nicotinamide] | 177 nM |
| COc1ccc(CNC(=O)c2ccc(-c3cccc(OC)c3)nc2)cc1 [Example 303, N-(4-Methoxybenzyl)-6-(3-methoxyphenyl)nicotinamide] | 331 nM |
| COc1cccc(-c2ccc(C(=O)NCCC3CCCCO3)cn2)c1 (centres unmarked) [Example 304, 6-(3-Methoxyphenyl)-N-[2-(tetrahydro-2H-pyran-2-yl)ethyl]nicotinamide] | 177 nM |
| COc1cccc(-c2ccc(C(=O)NC3CCOCC3)cn2)c1 [Example 305, 6-(3-Methoxyphenyl)-N-(tetrahydro-2H-pyran-4-yl)nicotinamide] | 38.7 nM |
| COC(=O)[C@H](Cc1ccc(Cl)cc1)NC(=O)c1ccc(-c2cccc(OC)c2)nc1 [Example 306, Methyl 4-chloro-N-{[6-(3-methoxyphenyl)pyridin-3-yl]carbonyl}phenylalaninate] | 387 nM |
| COc1cccc(-c2ccc(C(=O)Nc3ccccc3)cn2)c1 [Example 308, 6-(3-Methoxyphenyl)-N-phenylnicotinamide] | 54 nM |
| COC(=O)CNC(=O)[C@H](C)NC(=O)c1ccc(-c2cccc(OC)c2)nc1 [Example 309, Methyl N-{[6-(3-methoxyphenyl)pyridin-3-yl]carbonyl}-L-alanylglycinate] | 557 nM |
| Cc1cccc(-c2ccc(C(=O)NCc3ccccc3)cn2)c1 [Example 310, N-Benzyl-6-(3-methylphenyl)nicotinamide] | 19.4 nM |
| COc1cccc(-c2ccc(C(=O)NCc3cccc(F)c3)cn2)c1 [Example 311, N-(3-Fluorobenzyl)-6-(3-methoxyphenyl)nicotinamide] | 368 nM |
| Cc1cccc(-c2ccc(C(=O)NCc3cc(F)cc4c3OCOC4)cn2)c1 [Example 312, N-[(6-Fluoro-4H-1,3-benzodioxin-8-yl)methyl]-6-(3-methylphenyl)nicotinamide] | 19.9 nM |
| COc1cccc(-c2ccc(C(=O)NCC3C(=O)Nc4ccccc43)cn2)c1 (centres unmarked) [Example 313, 6-(3-Methoxyphenyl)-N-[(2-oxo-2,3-dihydro-1H-indol-3-yl)methyl]nicotinamide] | 7.62 nM |
| Cc1cccc(-c2ccc(C(=O)NCc3ccc(F)cc3)cn2)c1 [Example 314, N-(4-Fluorobenzyl)-6-(3-methylphenyl)nicotinamide] | 79.5 nM |
